Series [1] deals with dopamine D1 receptor (Homo sapiens, UniProt P21728). Briefly: D1 activity of hexahydrobenzo[a]phenanthridines, structure-activity statements. Conditions: relative to dihydrexidine.
Series [2] deals with T1, D1 receptors (Rattus norvegicus, UniProt P18901).
T1 construct: utilizing rat brain striatal homogenates having D1 and D2 receptors; from tissue; host or cells: rat brain striatum homogenate
Briefly: Affinity for D1 receptors in rat brain striatal homogenates labeled with 3H-SCH 23390. It is filed as binding. Particulars: for D1:D2 Selectivity: ratio of D2 to D1 affinity, rat striatal homogenates.

Series [3] addresses D2 receptor (Homo sapiens, UniProt P14416). Briefly: D2 potency of substituted hexahydrobenzo[a]phenanthridines, structure-activity statement. Conditions: relative to dihydrexidine.
The target in series [4] is D1 receptor (Homo sapiens, UniProt P21728). Briefly: Affinity and selectivity for the D1 receptor stated in the description, no method given. The format is binding. Conditions: exemplary compounds, b98.
The target of series [5] is T2, D4 receptor (Rattus norvegicus, UniProt P30729).
T2 sequence (P30729 1-387): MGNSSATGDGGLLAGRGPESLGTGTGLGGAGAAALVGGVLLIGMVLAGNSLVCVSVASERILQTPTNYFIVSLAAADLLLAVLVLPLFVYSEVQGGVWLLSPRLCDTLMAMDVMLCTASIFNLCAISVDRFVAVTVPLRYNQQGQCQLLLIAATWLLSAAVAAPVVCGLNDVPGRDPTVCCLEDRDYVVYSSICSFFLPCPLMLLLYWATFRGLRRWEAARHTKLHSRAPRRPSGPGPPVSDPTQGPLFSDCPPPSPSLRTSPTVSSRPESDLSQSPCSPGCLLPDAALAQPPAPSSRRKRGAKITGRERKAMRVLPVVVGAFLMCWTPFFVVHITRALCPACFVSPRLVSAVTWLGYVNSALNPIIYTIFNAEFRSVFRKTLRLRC
Briefly: Binding, cloned D4 receptor in CHO cells. On the set-up: expressed in transfected cells; host or cells: CHO cells. Conditions: read-out: Cloned Receptors D4 CHO (rat).

The target of series [6] is T2, D4 receptor. Briefly: Inhibition of forskolin-stimulated adenylate cyclase through D4 receptors in CHO cells. The format is cell-based.
The target of series [7] is D2L receptors (Homo sapiens, UniProt P14416). Briefly: Inhibition of forskolin-stimulated adenylate cyclase through D2L receptors in CHO cells. It is filed as cell-based. Conditions: compared with quinpirole.
Series [8] concerns adenylate cyclase in rat brain striatum. Briefly: Activation of adenylate cyclase in rat brain striatum. The format is biochemical. Conditions: compared with dopamine.
A short description of series [9]: Half-life and duration of functional activity. The format is in vivo.
In series [10] the test system is monkeys. Conditions: aged and reserpine-treated monkeys; cited from earlier work.
For series [11], the system named is rats with scopolamine-induced deficits. Briefly: Passive avoidance in rats, scopolamine-induced amnesia. Conditions: 3.0 mg/kg ip. The format is in vivo, rat. On the procedure:
The protocol summarized below is one of many variants of the passive avoidance procedure using scopolamine-induced amnesia (for review see Rush, Behav Neural Biol 50:255-274, 1988). This procedure is commonly used to identify drugs that may be useful in treating cognitive deficits, particularly those observed in AD. The effects of the D
Testing was conducted in standard 2-compartment rectangular passive avoidance chambers (San Diego Instruments, San Diego, Calif.) with black plexiglas sides and grid floors. The light compartment of the chambers were illuminated by a 20 W lamp located in this compartment; the dark side of the chambers will be shielded from light, except for light penetrating the opening connecting the two compartments of each chamber.
On training day, groups of 8 rats were injected with scopolamine (3.0 mg/kg, ip) or vehicle (1.0 ml/kg) 30 min prior to training. Scopolamine served as the dementing agent in this experiment. Ten min prior to training, each group of rats received a second injection of vehicle or a dose of DHX. At the end of the pretreatment interval, each rat was placed individually in the light compartment facing away from the opening between compartments. The latency for each rat to travel from the light to the dark compartment was measured up to a maximum of 300 sec; any animal not entering the dark compartment within 300 sec was discarded from the test group. Once the animal entered the dark compartment completely, a 1.0 milliampere, 3.0 sec scrambled shock was delivered to the entire grid floor. The animal was allowed to remain in the dark compartment during this 3.0 sec period or to escape to the light compartment. Each rat was then returned immediately to its home cage.
Twenty-four hr after training, each rat was tested in the same apparatus for retention of the task (to remain passively in the light compartment). […] The latency for animals to enter the dark compartment on test day (step-through latency) was recorded up to a maximum of 600 sec. Each animal was used only once in a single experiment.
A one-way analysis of variance (ANOVA) and Newman-Keuls post-hoc comparisons were used to identify significant deficits in passive avoidance responding produced by scopolamine and their reversal by DHX; a p value of less than 0.05 was used as the level of significance.

Counter-ions that a name gives are not always drawn. Like-named read-outs stand apart in the source and are kept apart here.

T1 sequence (P18901 whole entry): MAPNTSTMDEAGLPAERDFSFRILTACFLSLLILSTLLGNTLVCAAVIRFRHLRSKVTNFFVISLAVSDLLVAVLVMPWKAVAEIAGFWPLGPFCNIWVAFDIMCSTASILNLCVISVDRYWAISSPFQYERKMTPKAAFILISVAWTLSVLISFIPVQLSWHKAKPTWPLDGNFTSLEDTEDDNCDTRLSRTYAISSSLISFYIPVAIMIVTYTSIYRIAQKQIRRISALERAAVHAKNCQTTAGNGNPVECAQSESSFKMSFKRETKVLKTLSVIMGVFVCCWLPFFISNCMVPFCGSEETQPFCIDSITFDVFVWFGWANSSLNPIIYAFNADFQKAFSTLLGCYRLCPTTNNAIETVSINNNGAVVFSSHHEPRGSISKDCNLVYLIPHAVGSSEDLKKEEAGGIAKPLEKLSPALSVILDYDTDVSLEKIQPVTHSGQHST
dopamine D1 receptor, sequence (P21728 whole entry): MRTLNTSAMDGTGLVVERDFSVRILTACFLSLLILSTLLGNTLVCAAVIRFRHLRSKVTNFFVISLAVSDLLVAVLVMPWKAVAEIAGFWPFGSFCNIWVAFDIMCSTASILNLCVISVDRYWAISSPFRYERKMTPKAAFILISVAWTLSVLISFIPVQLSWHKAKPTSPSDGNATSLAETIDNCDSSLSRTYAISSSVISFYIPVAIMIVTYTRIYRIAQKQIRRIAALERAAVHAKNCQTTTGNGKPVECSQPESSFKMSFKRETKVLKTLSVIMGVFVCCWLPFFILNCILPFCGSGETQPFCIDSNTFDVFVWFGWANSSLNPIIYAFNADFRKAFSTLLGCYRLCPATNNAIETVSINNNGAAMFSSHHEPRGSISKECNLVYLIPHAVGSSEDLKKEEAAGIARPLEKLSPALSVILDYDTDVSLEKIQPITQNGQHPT
D2 receptor, sequence (P14416 whole entry): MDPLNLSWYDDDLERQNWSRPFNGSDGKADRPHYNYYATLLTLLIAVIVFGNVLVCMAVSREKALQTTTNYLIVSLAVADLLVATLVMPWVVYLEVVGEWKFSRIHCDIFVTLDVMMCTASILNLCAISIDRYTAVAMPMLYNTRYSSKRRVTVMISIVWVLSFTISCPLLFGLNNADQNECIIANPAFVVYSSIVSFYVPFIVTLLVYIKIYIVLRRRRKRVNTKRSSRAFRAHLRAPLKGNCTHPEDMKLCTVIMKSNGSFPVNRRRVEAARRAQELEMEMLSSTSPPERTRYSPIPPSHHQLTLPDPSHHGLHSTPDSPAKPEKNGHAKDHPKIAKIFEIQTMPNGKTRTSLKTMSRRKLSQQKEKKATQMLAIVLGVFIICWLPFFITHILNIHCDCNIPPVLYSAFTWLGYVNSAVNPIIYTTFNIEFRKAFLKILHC
D2L receptors, sequence (P14416 whole entry): as above
D1 receptor, sequence (P21728 whole entry): as the sequence (P21728 whole entry) above

For the compound `Oc1ccc2c(c1O)Cc1cccc3c1C2CNC3` (centres unmarked) (as salt: hydrobromid) [Compound 29, 8,9-Dihydroxy-2,3,7,11b-tetrahydro-1H-napth[1,2,3-de]isoquinoline], the melting point (as a rule, the temperature of the solid-liquid transition) is 258 °C (dec.).
On the same count and under the same terms, then `Cc1cccc2c1CN[C@H]1CCc3cc(O)c(O)cc3[C@H]21.Cl` (relative stereo), with 195 °C (dec.).
In the case of `Cc1ccc2c(c1)[C@H]1c3cc(O)c(O)cc3CC[C@@H]1NC2.Cl` (relative stereo) [Compound 6b, Trans-2-methyl-10,11-dihydroxy-5,6,6a,7,8,12b-hexahydrobenzo [a]phenanthridine hydrochloride], the melting point is 190 °C (dec.). In addition, the “D1 potency and efficacy” value in series [1] is given as “comparable to dihydrexidine”.
For the compound `Cc1ccc2c(c1)CN[C@H]1CCc3cc(O)c(O)cc3[C@H]21.Cl` (relative stereo) [Compound 6c, Trans-3-methyl-10,11-dihydroxy-5,6,6a,7,8,12b-hexahydrobenzo[a]phenanthridine hydrochloride], the melting point was 190 °C (dec.). In [2], the Ki turned out to be 7 nM and the “D1:D2 Selectivity” value amounted to 6. Further, the D2 potency result in [3] is on record as “greater D2 potency”. Besides, the “D1 potency and efficacy” value in series [1] is given as “comparable to dihydrexidine”.
Regarding `Cl.Oc1cc2c(cc1O)[C@@H]1c3cc(Cc4ccccc4)ccc3CN[C@H]1CC2` (relative stereo) [Compound 6e, Trans-2-benzyl-10,11-dihydroxy-5,6,6a,7,8,12b-hexahydrobenzo[a]phenanthridine hydrochloride], the Ki in [2] (rat brain striatal homogenates, 3H-SCH 23390, read-out: D1 Affinity) is 290 nM. For the same compound, the “D1:D2 Selectivity” value in series [2] is recorded as 0.6.
Regarding `Br.Oc1ccc2c(c1O)Oc1cccc3c1C2CNC3` (centres unmarked) [Compound 16a, 8,9-dihydroxy-1,2,3,11b-tetrahydrochromeno[4,3,2-de]isoquinoline hydrobromide], the melting point is 298 to 302 °C (dec.). Besides, the “D1:D2 selective” value in series [4] is listed as “equally high affinity for both receptor subtypes”.
For `C=CCN1Cc2cccc3c2C(C1)c1ccc(O)c(O)c1O3` (centres unmarked) [Compound 16b, N-allyl-8,9-dihydroxy-1,2,3,11b-tetrahydrochromeno[4,3,2-de]isoquinoline], the melting point is 251 to 253 °C (dec.).
The same measure, in the same setting: then `CCCN1Cc2cccc3c2C(C1)c1ccc(O)c(O)c1O3` (centres unmarked) [Compound 16c, N-propyl-8,9-dihydroxy-1,2,3,11b-tetrahydrochromeno[4,3,2-de]isoquinoline], with 259 to 264 °C (dec.).
With `Oc1ccc2c(c1O)Cc1cccc3c1C2CNC3` (centres unmarked) [Compound 29, 8,9-Dihydroxy-2,3,7,11b-tetrahydro-1H-napth[1,2,3-de]isoquinoline], the Ki in [5] was 60 nM. Besides, the “Agonist activity for inhibition of cAMP synthesis at D4 receptors” value in [6] is given as “full agonist”. Further, the EC50 (commonly the concentration needed to bring the measured effect to its halfway point) in series [6] (inhibition of forskolin-stimulated AC, mean ± SEM, at least three experiments, read-out: EC50 (nM) ± SEM, D4) amounted to 60 ± 18 nM. The “Agonist activity for inhibition of cAMP synthesis at D2L receptors” value in [7] is on record as “full agonist”. Also, the “Effectiveness in activating adenylate cyclase” value in series [8] is “as effective as dopamine”. In addition, the “Effectiveness in activating adenylate cyclase when receptor reserve is reduced” value in [8] (receptor reserve reduced) is recorded as “as effective as dopamine”. Moreover, the “Duration of functional activity” value in [9] (in vivo) was in the range of 7 to 10 h. In [9] (serum, read-out: Serum half-life (converted)), the half-life (commonly the time in which the quantity being followed falls by half) is 3 h.
On to `Oc1cc2c(cc1O)C(c1ccccc1)CNCC2` (centres unmarked) [SKF 38393, reference compound], for which, in series [10], the Spatial working memory entry is “improved spatial working memory”.
On to `CN1[C@@H]2C[C@@H](OC(=O)[C@H](CO)c3ccccc3)C[C@H]1[C@@H]1O[C@@H]12` [Scopolamine, reference compound], for which the “Acquisition of the passive avoidance task” value in series [11] is reported as “severe deficit”.
As for `NCCc1ccc(O)c(O)c1` [dopamine], the concentration giving a half-maximal response (EC50) in series [6] (read-out: EC50 (nM) ± SEM, D4, inhibition of forskolin-stimulated AC, mean ± SEM, at least three experiments) came to 1750 ± 682 nM.

The values are drawn from patent US20070155720A1, “Co-administration of dopamine-receptor binding compounds” (DarPharma, Inc., priority 2003, published 2007).
